Results from patent EP0745595A1, “3-(3-Aryloxyphenyl)-1-(substituted methyl)-s-triazine-2,4,6-oxo or thiotrione herbicidal agents” (American Cyanamid Company, priority 1995, dated 1996).

Tests used:
Type in all cases: in vivo
[1] = tested on: ABUTILON THEOPHRASTI, MEDIC.; experiment: Postemergence herbicidal evaluation, ABUTH (Velvetleaf)
Summary of the method: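 This postemergence herbicide test used two-week-old velvetleaf seedlings grown in jiffy flats. Each compound was sprayed at 40 psi as a dispersion in 50/50 acetone/water with 0.5% TWEEN®20 surfactant. Plants then received routine greenhouse care. After four to five weeks, injury was scored visually on a 0-9 scale against a control, and replicate tests were averaged.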

[2] = tested on: AMBROSIA ARTEMISIIFOLIA, L.; experiment: Postemergence herbicidal evaluation, AMBEL (Ragweed, Common)
Summary of the method: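 Postemergence herbicidal activity on AMBEL (common ragweed) was assessed on two-week-old seedlings grown in jiffy flats. Treatment solutions of 50/50 acetone/water with 0.5% TWEEN®20 surfactant were sprayed at 40 psi. After four to five weeks in the greenhouse, plants were scored 0-9 against a control for stand, vigor, malformation, size, chlorosis and overall appearance, with multiple tests averaged.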

[3] = tested on: CASSIA OBTUSIFOLIA, L.; experiment: Postemergence herbicidal evaluation, CASOB (Sicklepod); design: key to CASOB rating / Herbicidal effect rating, CASOB / CASOB: 0-9 visual rating scale vs untreated control
Summary of the method: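 Each value is a 0–9 visual rating of plant appearance compared with control, recorded 4–5 weeks after a 0.125–0.500 kg/ha spray, with multiple tests averaged.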

[4] = tested on: IPOMOEA SPP.; experiment: Postemergence herbicidal evaluation, IPOSS (Morningglory spp.)
Summary of the method: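 In this greenhouse postemergence herbicide test on Ipomoea spp. (morningglory), compounds in 50/50 acetone/water with 0.5% TWEEN®20 were sprayed at 40 psi onto seedlings about two weeks old grown in jiffy flats. After four to five weeks, injury was scored on a 0-9 scale covering stand, vigor, malformation, size, chlorosis and overall appearance versus control, with repeat tests averaged.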

[5] = tested on: GALIUM APARINE; experiment: Postemergence herbicidal evaluation, GALAP (Galium); design: key to GALAP rating / Herbicidal effect rating, GALAP / GALAP: 0-9 visual rating scale vs untreated control
Summary of the method: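 In this postemergence greenhouse test, two-week-old Galium aparine seedlings grown in jiffy flats received a 40 psi spray of compound in acetone/water (50/50) with 0.5% TWEEN®20 surfactant. After four to five weeks, stand, vigor, malformation, size, chlorosis and overall appearance were compared with untreated controls on a 0-9 scale, averaging multiple tests.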

[6] = tested on: ECHINOCHLOA CRUS-GALLI, (L) BEAU; experiment: Postemergence herbicidal evaluation, ECHCG (Barnyardgrass); design: key to ECHCG rating / Herbicidal effect rating, ECHCG / ECHCG: 0-9 visual rating scale vs untreated control
Summary of the method: (§1)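 Application to seedlings around two weeks old: test compound in 50/50 acetone/water, 0.5% TWEEN 20, sprayed at 40 psi for roughly 0.125–0.500 kg/ha. Evaluation: 0–9 visual scale after 4–5 weeks, replicates averaged.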

[7] = tested on: SETARIA VIRIDIS, (L) BEAU; experiment: Postemergence herbicidal evaluation, SETVI (Foxtail, Green); design: key to SETVI rating / Herbicidal effect rating, SETVI / SETVI: 0-9 visual rating scale vs untreated control
Summary of the method: as §1

[8] = tested on: GLYCINE MAX(L) MERR. CV. WILLIAMS; experiment: Preemergence herbicidal evaluation, GLXMAW (Soybean, Williams); settings: rated four to five weeks after treatment
Summary of the method: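 Injury scored visually (0–9; stand, vigor, malformation, size, chlorosis) versus untreated control, four to five weeks post-treatment. Application: aqueous acetone spray onto freshly planted soil cups, equivalent to about 0.125 to 0.50 kg/ha, plants then kept under standard greenhouse care.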

[9] = tested on: ORYZA SATIVA, L. TEBONNET; experiment: Preemergence herbicidal evaluation, ORYSAT (Rice, Tebonnet); settings: rated four to five weeks after treatment
Source text: (§2) Results of herbicide evaluation are expressed on a rating scale (0-9). The scale is based upon a visual observation of plant stand, vigor, malformation, size, chlorosis and overall plant appearance as compared with a control.
(§3) The preemergence herbicidal activity of the test compounds of the present invention is exemplified by the following tests in which the seeds of a variety of monocotyledonous and dicotyledonous plants are separately mixed with potting soil and planted on top of approximately one inch of soil in separate pint cups. […] The treated cups are then placed on greenhouse benches, watered and cared for in accordance with conventional greenhouse procedures. From four to five weeks after treatment, the tests are terminated and each cup is examined and rated according to the rating system provided in Example 40.
(§4) The compounds evaluated are reported by compound number given in Example 40.

[10] = tested on: ZEA MAYS L.; experiment: Preemergence herbicidal evaluation, ZEAMX (Corn, Field); settings: rated four to five weeks after treatment
Source text: as §2, §3, §4

[11] = tested on: ECHINOCHLOA ORYZOIDES (ARD.)FRITSCH; experiment: Preemergence weed control under flooded paddy conditions, ECHORC (Watergrass (Calif.)); settings: 0.500 kg/ha, preemergence, 3-4 weeks after treatment
Summary of the method: (§5)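 Visual 0-9 rating against untreated control, covering stand, vigor, malformation, size and chlorosis, scored three to four weeks post-treatment in a greenhouse. Application was into 1.5-3 cm flood water over silt loam sown at 0.5 cm. The 50/50 v/v aqueous/acetone doses were about 0.5, 0.25, 0.125 and 0.063 kg/ha.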

[12] = tested on: CYPERUS IRIA; experiment: Preemergence weed control under flooded paddy conditions, CYPIR (Rice Flatsedge); settings: 0.500 kg/ha, preemergence, 3-4 weeks after treatment
Summary of the method: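 This preemergence test mimicked flooded paddy conditions: rice flatsedge propagules were sown in the upper 0.5 cm of silt loam in undrained 32 oz. containers (10.5 cm diameter), with water held 1.5 to 3 cm over the soil. After normal greenhouse care, plants were scored 0-9 for stand, vigor, malformation, size, chlorosis and appearance relative to controls.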

[13] = tested on: CYPERUS SEROTINUS, ROTTB.; experiment: Preemergence weed control under flooded paddy conditions, CYPSE (Flatsedge); settings: 0.500 kg/ha, preemergence, 3-4 weeks after treatment
Summary of the method: as §5

[14] = tested on: […], PRESL.; experiment: Preemergence weed control under flooded paddy conditions, MOOVA (Monochoria); settings: 0.500 kg/ha, preemergence, 3-4 weeks after treatment
Summary of the method: as §5

[15] = tested on: SAGITTARIA PYGMAEA, L.; experiment: Preemergence weed control under flooded paddy conditions, SAGPY (Arrowhead (Pygmaea)); settings: 0.500 kg/ha, preemergence, 3-4 weeks after treatment
Summary of the method: as §5

[16] = tested on: ORYZA SATIVA, L. TEBONNET; experiment: Rice tolerance to post-transplant applications under flooded paddy conditions, ORYSAT (Rice, Tebonnet); settings: 0.500 kg/ha, post-transplant rice, 3-4 weeks after treatment
Summary of the method: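 Rated on a visual 0–9 scale against untreated plants 3–4 weeks after application, rice (cv. Tebonnet) tolerance was tested by applying compounds (approx. 0.5–0.063 kg/ha, acetone/water 50/50) to flooded soil three days post-transplant, water kept 1.5–3 cm deep.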

Molecule `COC(=O)Cn1c(=O)n(C)c(=O)n(-c2cc(Oc3ccc(C#N)cc3)ccc2[N+](=O)[O-])c1=O` [Compound 32, Methyl 3-[5-(p-cyanophenoxy)-2-nitrophenyl]-tetrahydro-5-methyl-2,4,6-trioxo-s-triazine-1(2H)-acetate] has an ABUTH rating ([1]; Rate 0.125 kg/ha) of 0.0, an ABUTH rating ([1]; Rate 0.250 kg/ha) of 0.0 and an ABUTH rating ([1]; Rate 0.500 kg/ha) of 0.0. It also gave an AMBEL rating ([2]; Rate 0.125 kg/ha) of 0.0, an AMBEL rating ([2]; Rate 0.250 kg/ha) of 0.0 and an AMBEL rating ([2]; Rate 0.500 kg/ha) of 0.0. The CASOB rating ([3]; Rate 0.125 kg/ha) was 0.0, the CASOB rating ([3]; Rate 0.250 kg/ha) was 0.0 and the CASOB rating ([3]; Rate 0.500 kg/ha) was 0.0. The IPOSS rating ([4]; Rate 0.125 kg/ha) was 0.0, the IPOSS rating ([4]; Rate 0.250 kg/ha) was 0.0 and the IPOSS rating ([4]; Rate 0.500 kg/ha) was 0.0. For the same molecule, the GALAP rating ([5]; Rate 0.125 kg/ha) was 0.0, the GALAP rating ([5]; Rate 0.250 kg/ha) was 0.0 and the GALAP rating ([5]; Rate 0.500 kg/ha) was 0.0. It also gave an ECHCG rating ([6]; Rate 0.125 kg/ha) of 0.0, an ECHCG rating ([6]; Rate 0.250 kg/ha) of 0.0 and an ECHCG rating ([6]; Rate 0.500 kg/ha) of 0.0. For the same molecule, the SETVI rating ([7]; Rate 0.125 kg/ha) was 0.0, the SETVI rating ([7]; Rate 0.250 kg/ha) was 0.0 and the SETVI rating ([7]; Rate 0.500 kg/ha) was 0.0. For the same molecule, the GLXMAW herbicidal rating ([8]; Rate 0.125 kg/ha) was 0.0, the GLXMAW herbicidal rating ([8]; Rate 0.250 kg/ha) was 0.0 and the GLXMAW herbicidal rating ([8]; Rate 0.500 kg/ha) was 0.0. For the same molecule, the ORYSAT herbicidal rating ([9]; Rate 0.125 kg/ha) was 2.0, the ORYSAT herbicidal rating ([9]; Rate 0.250 kg/ha) was 2.0 and the ORYSAT herbicidal rating ([9]; Rate 0.500 kg/ha) was 2.0. It also gave a ZEAMX herbicidal rating ([10]; Rate 0.125 kg/ha) of 0.0, a ZEAMX herbicidal rating ([10]; Rate 0.250 kg/ha) of 0.0 and a ZEAMX herbicidal rating ([10]; Rate 0.500 kg/ha) of 0.0. The “Herbicidal effect rating, ECHORC” value [11] was 0.0, the “Herbicidal effect rating, CYPIR” value [12] was 0.0 and the “Herbicidal effect rating, CYPSE” value [13] was 0.0. For the same molecule, the “Herbicidal effect rating, MOOVA” value [14] was 0.0, the “Herbicidal effect rating, SAGPY” value [15] was 0.0 and the “Herbicidal effect rating, ORYSAT” value [16] was 0.0.
